Assays:
[1] = biological target: Serine/threonine-protein kinase 38 (Homo sapiens) (UniProt Q15208); test: Inhibition of wild-type human partial length NDR1 (N33 to E449 residues) expressed in mammalian expression system assessed as residual activity at 1 uM by Kinomescan method relative to control
[2] = biological target: TGF-beta receptor type-2 (Homo sapiens) (UniProt P37173); test: Inhibition of wild-type human partial length TGFBR2 (I218 to K567 residues) expressed in bacterial expression system assessed as residual activity at 1 uM by Kinomescan method relative to control
[3] = biological target: Cyclin-dependent kinase 4/cyclin D1 (Homo sapiens) (UniProt P11802+P24385); test: Inhibition of wild-type human full length CDK4/cyclinD1 (M1 to E303 residues) expressed in mammalian expression system assessed as residual activity at 1 uM by Kinomescan method relative to control
[4] = biological target: Protein kinase C epsilon type (Homo sapiens) (UniProt Q02156); test: Inhibition of PKCepsilon (unknown origin) assessed as residual activity at 1 uM by Kinomescan method relative to control
Sequence of Protein kinase C epsilon type (Homo sapiens) (Q02156 whole entry, the tested form may be a part): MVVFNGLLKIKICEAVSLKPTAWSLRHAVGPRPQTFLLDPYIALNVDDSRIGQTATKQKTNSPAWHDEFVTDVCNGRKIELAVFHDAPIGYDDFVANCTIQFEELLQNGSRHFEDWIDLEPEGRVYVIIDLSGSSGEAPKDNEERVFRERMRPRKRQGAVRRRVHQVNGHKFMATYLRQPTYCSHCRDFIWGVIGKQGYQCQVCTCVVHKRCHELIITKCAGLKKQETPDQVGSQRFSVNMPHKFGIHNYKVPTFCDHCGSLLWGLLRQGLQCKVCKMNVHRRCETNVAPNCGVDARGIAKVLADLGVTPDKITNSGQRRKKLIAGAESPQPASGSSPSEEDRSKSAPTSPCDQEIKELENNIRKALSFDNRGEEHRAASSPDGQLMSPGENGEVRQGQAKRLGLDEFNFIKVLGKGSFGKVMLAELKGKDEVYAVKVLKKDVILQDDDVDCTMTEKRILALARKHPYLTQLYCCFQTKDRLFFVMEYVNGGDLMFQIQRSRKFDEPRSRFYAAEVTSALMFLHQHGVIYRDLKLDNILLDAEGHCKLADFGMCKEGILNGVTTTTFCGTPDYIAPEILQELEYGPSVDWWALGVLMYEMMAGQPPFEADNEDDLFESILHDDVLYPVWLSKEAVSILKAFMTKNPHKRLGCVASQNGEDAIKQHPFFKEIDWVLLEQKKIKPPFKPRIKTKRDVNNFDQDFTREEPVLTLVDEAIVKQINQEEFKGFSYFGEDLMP

[5] = biological target: Insulin-like growth factor 1 receptor (Homo sapiens) (UniProt P08069); test: Inhibition of wild-type human partial length IGF1R (L972 to D1294 residues) expressed in bacterial expression system assessed as residual activity at 1 uM by Kinomescan method relative to control
Sequence of Insulin-like growth factor 1 receptor (Homo sapiens) (P08069 31-736 limits assumed): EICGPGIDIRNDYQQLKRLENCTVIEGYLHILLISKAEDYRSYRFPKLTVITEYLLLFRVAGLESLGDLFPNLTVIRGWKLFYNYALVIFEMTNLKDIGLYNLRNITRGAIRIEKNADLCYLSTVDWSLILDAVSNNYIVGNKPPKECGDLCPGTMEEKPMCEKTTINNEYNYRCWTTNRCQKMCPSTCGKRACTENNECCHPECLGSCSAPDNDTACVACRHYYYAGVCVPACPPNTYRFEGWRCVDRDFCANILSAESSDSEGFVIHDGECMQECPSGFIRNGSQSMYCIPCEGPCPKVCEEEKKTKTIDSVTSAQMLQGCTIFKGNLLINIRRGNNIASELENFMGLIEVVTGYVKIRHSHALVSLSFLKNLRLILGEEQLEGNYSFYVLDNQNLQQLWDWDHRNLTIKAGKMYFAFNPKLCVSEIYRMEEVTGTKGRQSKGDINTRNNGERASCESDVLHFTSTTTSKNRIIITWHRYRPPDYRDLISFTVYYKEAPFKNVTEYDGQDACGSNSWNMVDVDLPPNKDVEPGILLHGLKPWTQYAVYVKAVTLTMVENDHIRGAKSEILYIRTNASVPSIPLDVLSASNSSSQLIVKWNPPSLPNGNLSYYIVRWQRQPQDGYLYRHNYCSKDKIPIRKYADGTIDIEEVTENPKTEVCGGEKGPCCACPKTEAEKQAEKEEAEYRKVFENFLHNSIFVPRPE
Sequence of Insulin-like growth factor 1 receptor (Homo sapiens) (P08069 741-1367 limits assumed): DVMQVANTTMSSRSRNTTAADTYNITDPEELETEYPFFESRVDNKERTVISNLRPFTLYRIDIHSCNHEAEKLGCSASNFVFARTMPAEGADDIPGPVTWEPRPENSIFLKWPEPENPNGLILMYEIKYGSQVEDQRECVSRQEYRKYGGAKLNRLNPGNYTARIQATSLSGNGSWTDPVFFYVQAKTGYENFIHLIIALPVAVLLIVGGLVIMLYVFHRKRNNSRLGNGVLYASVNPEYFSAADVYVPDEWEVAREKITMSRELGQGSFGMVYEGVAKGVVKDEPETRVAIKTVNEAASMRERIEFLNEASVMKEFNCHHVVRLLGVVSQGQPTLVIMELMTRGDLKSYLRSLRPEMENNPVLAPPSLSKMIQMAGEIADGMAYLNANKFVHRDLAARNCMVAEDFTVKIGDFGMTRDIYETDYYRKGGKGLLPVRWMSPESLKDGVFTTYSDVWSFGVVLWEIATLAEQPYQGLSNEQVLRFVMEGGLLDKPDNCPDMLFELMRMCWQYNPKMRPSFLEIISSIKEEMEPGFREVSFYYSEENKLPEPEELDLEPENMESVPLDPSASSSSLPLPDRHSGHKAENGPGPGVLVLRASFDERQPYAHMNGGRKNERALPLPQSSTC

[6] = biological target: Macrophage colony-stimulating factor 1 receptor (Homo sapiens) (UniProt P07333); test: Inhibition of FMS (unknown origin) assessed as residual activity at 1 uM by Kinomescan method relative to control
[7] = Ratio of total drug concentration in brain to blood in Han-Wistar rat at 10 mg/kg, po; assay type: ADME, organism-based
[8] = biological target: Serine/threonine-protein kinase Sgk1 (Homo sapiens) (UniProt O00141); test: Inhibition of wild-type human partial length SGK1 (I60 to L431 residues) expressed in mammalian expression system assessed as residual activity at 1 uM by Kinomescan method relative to control
Sequence of Serine/threonine-protein kinase Sgk1 (Homo sapiens) (O00141 whole entry, the tested form may be a part): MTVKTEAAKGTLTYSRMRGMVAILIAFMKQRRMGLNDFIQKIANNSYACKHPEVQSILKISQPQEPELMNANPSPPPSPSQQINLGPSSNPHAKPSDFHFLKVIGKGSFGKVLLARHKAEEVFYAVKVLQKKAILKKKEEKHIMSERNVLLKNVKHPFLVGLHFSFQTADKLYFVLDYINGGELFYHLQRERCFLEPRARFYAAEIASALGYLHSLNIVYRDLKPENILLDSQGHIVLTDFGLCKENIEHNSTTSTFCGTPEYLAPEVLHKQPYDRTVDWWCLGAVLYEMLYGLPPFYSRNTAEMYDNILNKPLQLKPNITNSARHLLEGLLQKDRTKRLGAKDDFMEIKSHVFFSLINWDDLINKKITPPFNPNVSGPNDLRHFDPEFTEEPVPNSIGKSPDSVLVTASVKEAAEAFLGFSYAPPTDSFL

[9] = biological target: Serine/threonine-protein kinase A-Raf (Homo sapiens) (UniProt P10398); test: Inhibition of ARAF (unknown origin) assessed as residual activity assessed as residual activity at 1 uM relative to control
Sequence of Serine/threonine-protein kinase A-Raf (Homo sapiens) (P10398 whole entry, the tested form may be a part): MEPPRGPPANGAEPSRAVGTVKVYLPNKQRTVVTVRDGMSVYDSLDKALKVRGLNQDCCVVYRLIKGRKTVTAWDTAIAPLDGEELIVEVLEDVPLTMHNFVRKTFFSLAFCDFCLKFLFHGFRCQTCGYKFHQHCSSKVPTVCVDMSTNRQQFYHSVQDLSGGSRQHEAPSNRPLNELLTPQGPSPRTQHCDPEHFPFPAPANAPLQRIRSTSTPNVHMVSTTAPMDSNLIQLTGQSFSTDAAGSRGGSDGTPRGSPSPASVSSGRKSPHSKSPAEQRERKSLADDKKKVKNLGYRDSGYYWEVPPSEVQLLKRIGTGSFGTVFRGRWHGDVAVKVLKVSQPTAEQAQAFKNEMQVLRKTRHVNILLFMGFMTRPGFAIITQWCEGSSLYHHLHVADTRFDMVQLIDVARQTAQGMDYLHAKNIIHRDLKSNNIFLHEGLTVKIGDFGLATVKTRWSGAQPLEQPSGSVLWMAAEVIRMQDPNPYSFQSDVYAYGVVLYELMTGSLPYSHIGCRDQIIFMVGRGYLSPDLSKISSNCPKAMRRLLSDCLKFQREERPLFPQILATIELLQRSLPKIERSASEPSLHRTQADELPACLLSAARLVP

[10] = biological target: Ribosomal protein S6 kinase alpha-1 (Homo sapiens) (UniProt Q15418); test: Inhibition of wild-type human partial length N-terminal RSK1 kinase domain 1 (M1 to E388 residues) expressed in bacterial expression system assessed as residual activity at 1 uM by Kinomescan method relative to control
[11] = biological target: cGMP-dependent protein kinase 1 (Homo sapiens) (UniProt Q13976); test: Inhibition of PKG1beta (unknown origin) assessed as residual activity at 1 uM by Kinomescan method relative to control
[12] = biological target: Protein kinase C zeta type (Homo sapiens) (UniProt Q05513); test: Inhibition of PKCzeta (unknown origin) assessed as residual activity at 1 uM by Kinomescan method relative to control
[13] = biological target: Wee1-like protein kinase (Homo sapiens) (UniProt P30291); test: Inhibition of wild-type human partial length WEE1 (M291 to K575 residues) expressed in bacterial expression system assessed as residual activity at 1 uM by Kinomescan method relative to control
[14] = biological target: MAP kinase-interacting serine/threonine-protein kinase 1 (Homo sapiens) (UniProt Q9BUB5); test: Inhibition of MNK1 (unknown origin) assessed as residual activity at 1 uM by Kinomescan method relative to control
[15] = biological target: Mitogen-activated protein kinase 7 (Homo sapiens) (UniProt Q13164); test: Inhibition of wild-type human partial length ERK5 (M1 to A409 residues) expressed in bacterial expression system assessed as residual activity at 1 uM by Kinomescan method relative to control
[16] = biological target: Serine/threonine-protein kinase PLK4 (Homo sapiens) (UniProt O00444); test: Inhibition of wild-type human partial length PLK4 (M1 to S273 residues) expressed in mammalian expression system assessed as residual activity at 1 uM by Kinomescan method relative to control
[17] = biological target: Rhodopsin kinase GRK7 (Homo sapiens) (UniProt Q8WTQ7); test: Inhibition of wild-type human full length GRK7 (M1 to L553 residues) expressed in mammalian expression system assessed as residual activity at 1 uM by Kinomescan method relative to control
Sequence of Rhodopsin kinase GRK7 (Homo sapiens) (Q8WTQ7 whole entry, the tested form may be a part): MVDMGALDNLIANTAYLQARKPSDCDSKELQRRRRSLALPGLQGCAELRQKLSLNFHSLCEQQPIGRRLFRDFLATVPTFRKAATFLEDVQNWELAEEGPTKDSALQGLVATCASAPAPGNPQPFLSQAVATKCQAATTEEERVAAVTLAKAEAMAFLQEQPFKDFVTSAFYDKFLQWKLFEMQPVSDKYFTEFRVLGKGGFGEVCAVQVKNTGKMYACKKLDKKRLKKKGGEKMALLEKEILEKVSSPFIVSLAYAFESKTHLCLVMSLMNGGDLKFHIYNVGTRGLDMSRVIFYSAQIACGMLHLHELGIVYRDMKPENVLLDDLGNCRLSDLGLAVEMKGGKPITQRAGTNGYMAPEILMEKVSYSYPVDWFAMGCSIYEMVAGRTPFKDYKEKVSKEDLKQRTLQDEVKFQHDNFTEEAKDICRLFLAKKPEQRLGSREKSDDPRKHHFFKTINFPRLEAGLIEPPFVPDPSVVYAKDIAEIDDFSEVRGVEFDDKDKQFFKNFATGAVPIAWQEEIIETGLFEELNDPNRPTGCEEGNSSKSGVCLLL

[18] = biological target: Angiopoietin-1 receptor (Homo sapiens) (UniProt Q02763); test: Inhibition of wild-type human partial length TIE2 (N804 to T1112 residues) expressed in bacterial expression system assessed as residual activity at 1 uM by Kinomescan method relative to control
[19] = biological target: Testis-specific serine/threonine-protein kinase 1 (Homo sapiens) (UniProt Q9BXA7); test: Inhibition of wild-type human full length TSSK1B (M1 to Q367 residues) expressed in bacterial expression system assessed as residual activity at 1 uM by Kinomescan method relative to control
[20] = biological target: Serine/threonine-protein kinase D2 (Homo sapiens) (UniProt Q9BZL6); test: Inhibition of wild-type human partial length PRKD2 (A519 to E838 residues) expressed in bacterial expression system assessed as residual activity at 1 uM by Kinomescan method relative to control
Sequence of Serine/threonine-protein kinase D2 (Homo sapiens) (Q9BZL6 whole entry, the tested form may be a part): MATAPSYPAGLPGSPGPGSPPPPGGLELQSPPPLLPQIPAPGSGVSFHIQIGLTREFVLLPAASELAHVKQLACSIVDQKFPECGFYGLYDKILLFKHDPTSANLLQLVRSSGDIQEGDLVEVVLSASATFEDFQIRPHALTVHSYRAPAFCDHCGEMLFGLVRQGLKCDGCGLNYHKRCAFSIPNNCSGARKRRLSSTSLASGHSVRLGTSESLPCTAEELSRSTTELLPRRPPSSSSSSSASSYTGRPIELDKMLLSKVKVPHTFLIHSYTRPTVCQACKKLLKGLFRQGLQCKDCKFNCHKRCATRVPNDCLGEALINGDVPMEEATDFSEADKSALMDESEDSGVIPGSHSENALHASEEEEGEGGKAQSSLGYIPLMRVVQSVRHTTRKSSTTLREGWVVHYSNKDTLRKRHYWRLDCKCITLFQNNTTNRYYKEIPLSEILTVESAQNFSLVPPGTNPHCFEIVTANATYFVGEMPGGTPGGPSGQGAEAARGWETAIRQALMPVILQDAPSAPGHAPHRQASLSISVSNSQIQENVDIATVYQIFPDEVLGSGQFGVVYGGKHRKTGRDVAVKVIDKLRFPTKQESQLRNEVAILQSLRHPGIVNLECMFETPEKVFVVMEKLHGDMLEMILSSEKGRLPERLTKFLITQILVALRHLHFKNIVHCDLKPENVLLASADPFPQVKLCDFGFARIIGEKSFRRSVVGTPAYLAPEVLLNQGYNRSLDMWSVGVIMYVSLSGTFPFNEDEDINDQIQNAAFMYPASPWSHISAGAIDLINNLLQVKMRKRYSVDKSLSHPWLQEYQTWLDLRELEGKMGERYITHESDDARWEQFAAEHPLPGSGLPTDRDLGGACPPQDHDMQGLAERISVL

[21] = biological target: CDK9/Cyclin K (Homo sapiens) (UniProt P50750+O75909); test: Inhibition of wild-type human full length CDK9 (M1 to F372 residues)/cyclin K expressed in bacterial expression system assessed as residual activity at 1 uM by Kinomescan method relative to control
[22] = biological target: Myosin light chain kinase (Homo sapiens) (UniProt Q32MK0); test: Inhibition of wild-type human partial length MLCK (D488 to K800 residues) expressed in bacterial expression system assessed as residual activity at 1 uM by Kinomescan method relative to control
[23] = biological target: Ephrin type-B receptor 2 (Homo sapiens) (UniProt P29323); test: Inhibition of wild-type human partial length EPHB2 (I597 to L902 residues) expressed in bacterial expression system assessed as residual activity at 1 uM by Kinomescan method relative to control
[24] = biological target: Ephrin type-B receptor 4 (Homo sapiens) (UniProt P54760); test: Inhibition of wild-type human partial length EPHB4 (H585 to G892 residues) expressed in bacterial expression system assessed as residual activity at 1 uM by Kinomescan method relative to control
[25] = biological target: cAMP-dependent protein kinase catalytic subunit PRKX (Homo sapiens) (UniProt P51817); test: Inhibition of wild-type human partial length PRKX (M1 to F358 residues) expressed in bacterial expression system assessed as residual activity at 1 uM by Kinomescan method relative to control
[26] = biological target: RAC-gamma serine/threonine-protein kinase (Homo sapiens) (UniProt Q9Y243); test: Inhibition of wild-type human partial length AKT3 expressed in bacterial expression system assessed as residual activity at 1 uM by Kinomescan method relative to control
[27] = biological target: Ribosomal protein S6 kinase alpha-6 (Homo sapiens) (UniProt Q9UK32); test: Inhibition of wild-type human partial length N-terminal RSK4 kinase domain 1 (M1 to E397 residues) expressed in mammalian expression system assessed as residual activity at 1 uM by Kinomescan method relative to control

Sequence of Serine/threonine-protein kinase 38 (Homo sapiens) (Q15208 2-465 limits assumed): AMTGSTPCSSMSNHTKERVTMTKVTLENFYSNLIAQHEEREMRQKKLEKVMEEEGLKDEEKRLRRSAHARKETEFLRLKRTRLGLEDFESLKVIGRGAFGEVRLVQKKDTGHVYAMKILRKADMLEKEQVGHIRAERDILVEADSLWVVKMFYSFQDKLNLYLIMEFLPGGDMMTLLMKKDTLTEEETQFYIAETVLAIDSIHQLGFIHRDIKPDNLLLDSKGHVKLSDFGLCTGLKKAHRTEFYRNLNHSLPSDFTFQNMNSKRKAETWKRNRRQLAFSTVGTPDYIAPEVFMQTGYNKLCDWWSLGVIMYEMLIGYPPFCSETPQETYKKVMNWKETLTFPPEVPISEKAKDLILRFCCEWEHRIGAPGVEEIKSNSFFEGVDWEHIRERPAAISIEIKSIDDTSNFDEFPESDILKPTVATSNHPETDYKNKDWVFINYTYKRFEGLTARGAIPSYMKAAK

## CCOc1nc(Nc2ccc(C(=O)N3CCOCC3)cc2OC)nc2[nH]ccc12
[1]
  Activity: 97.8%
[2]
  Activity: 104%
[3]
  Activity: 97.4%
[4]
  Activity: 95%
[5]
  Activity: 45.4%
[6]
  Activity: 106%
[7]
  Kp: 0.24
[8]
  Activity: 96.6%
[9]
  Activity: 95.9%
[10]
  Activity: 87.1%
[11]
  Activity: 90.3%
[12]
  Activity: 99.9%
[13]
  Activity: 98.3%
[14]
  Activity: 98.7%
[15]
  Activity: 99.1%
[16]
  Activity: 58.8%
[17]
  Activity: 98.4%
[18]
  Activity: 108%
[19]
  Activity: 2.41%
[20]
  Activity: 62.1%
[21]
  Activity: 103%
[22]
  Activity: 15.8%
[23]
  Activity: 95.3%
[24]
  Activity: 96.3%
[25]
  Activity: 99.8%
[26]
  Activity: 98.8%
[27]
  Activity: 87.5%

From ChEMBL document CHEMBL4715821, “Discovery of 4-ethoxy-7H-pyrrolo[2,3-d]pyrimidin-2-amines as potent, selective and orally bioavailable LRRK2 inhibitors” (Bioorg Med Chem Lett, 2018)
